This note sets out measurements from ChEMBL document CHEMBL4376820, “Homodimeric Tobramycin Adjuvant Repurposes Novobiocin as an Effective Antibacterial Agent against Gram-Negative Bacteria” (J Med Chem, 2019).

The test system of data set [1] is Acinetobacter baumannii. In words: Antibacterial activity against novobiocin-resistant Acinetobacter baumannii ATCC 17978 mutant generated from seven serial passages by checkerboard assay. Format: functional.
The test system of data set [2] is Acinetobacter baumannii. In words: Antibacterial activity against wild type Acinetobacter baumannii ATCC 17978 assessed as resistant development at sub-MIC measured after 7 days of passaging by microbroth dilution method relative to control. Format: functional.
Data set [3] deals with Acinetobacter baumannii. In words: Antibacterial activity against novobiocin and test compound-resistant Acinetobacter baumannii ATCC 17978 mutant generated from seven serial passages in presence of novobiocin by checkerboard assay. Format: functional.
Data set [4] relates to Acinetobacter baumannii. In words: Antibacterial activity against colistin-resistant Acinetobacter baumannii ATCC 17978 mutant generated from seven serial passages by checkerboard assay. Format: functional.
The test system of data set [5] is Pseudomonas aeruginosa. Briefly: Induction of outer membrane permeabilization in Pseudomonas aeruginosa PAO1 assessed as increase in accumulation of NPN by measuring fluorescence intensity at 14 ug/ml measured immediately by NPN dye uptake assay. Format: organism-based.
In data set [6] the test system is Acinetobacter baumannii. In words: Antibacterial activity against wild type Acinetobacter baumannii ATCC 17978 by checkerboard assay. Format: functional.
The test system of data set [7] is Pseudomonas aeruginosa. In words: Synergistic antibacterial activity against wild type Pseudomonas aeruginosa PAO1 assessed as potentiation of novobiocin-induced antibacterial effect incubated for 18 hrs by checkerboard assay relative to novobiocin alone. Format: functional.
Data set [8] concerns Pseudomonas aeruginosa. In words: Synergistic antibacterial activity against wild type Pseudomonas aeruginosa PAO1 assessed as potentiation of rifampicin-induced antibacterial effect incubated for 18 hrs by checkerboard assay. Format: functional, organism-based.
The test system of data set [9] is Pseudomonas aeruginosa. In words: Synergistic antibacterial activity against wild type Pseudomonas aeruginosa PAO1 assessed as potentiation of ceftazidime-induced antibacterial effect incubated for 18 hrs by checkerboard assay. Format: functional, organism-based.
Data set [10] deals with Pseudomonas aeruginosa. Briefly: Synergistic antibacterial activity against wild type Pseudomonas aeruginosa PAO1 assessed as potentiation of clindamycin-induced antibacterial effect incubated for 18 hrs by checkerboard assay relative to clindamycin alone. Format: functional.
In data set [11] the test system is Pseudomonas aeruginosa. In words: Synergistic antibacterial activity against wild type Pseudomonas aeruginosa PAO1 assessed as potentiation of moxifloxacin-induced antibacterial effect incubated for 18 hrs by checkerboard assay relative to moxifloxacin alone. Format: functional.
Data set [12] deals with Pseudomonas aeruginosa. In words: Synergistic antibacterial activity against wild type Pseudomonas aeruginosa PAO1 assessed as potentiation of chloramphenicol-induced antibacterial effect incubated for 18 hrs by checkerboard assay. Format: functional, organism-based.
The test system of data set [13] is Pseudomonas aeruginosa. Briefly: Synergistic antibacterial activity against wild type Pseudomonas aeruginosa PAO1 assessed as potentiation of minocycline-induced antibacterial effect incubated for 18 hrs by checkerboard assay. Format: functional, organism-based.
Data set [14] relates to Pseudomonas aeruginosa. In words: Synergistic antibacterial activity against wild type Pseudomonas aeruginosa PAO1 assessed as potentiation of cefotaxime-induced antibacterial effect incubated for 18 hrs by checkerboard assay relative to cefotaxime alone. Format: functional.
The subject of data set [15] is Pseudomonas aeruginosa. In words: Synergistic antibacterial activity against wild type Pseudomonas aeruginosa PAO1 assessed as potentiation of piperacillin-induced antibacterial effect incubated for 18 hrs by checkerboard assay relative to piperacillin alone. Format: functional.
The subject of data set [16] is Pseudomonas aeruginosa. Briefly: Antibacterial activity against wild type Pseudomonas aeruginosa PAO1 assessed as fractional inhibitory concentration index incubated for 18 hrs in presence of tobramycin by checkerboard assay. Format: functional.
The test system of data set [17] is Pseudomonas aeruginosa. Briefly: Synergistic antibacterial activity against wild type Pseudomonas aeruginosa PAO1 assessed as potentiation of vancomycin-induced antibacterial effect at <=7.1 uM incubated for 18 hrs by checkerboard assay. Format: functional, organism-based.
The test system of data set [18] is Pseudomonas aeruginosa. Briefly: Synergistic antibacterial activity against wild type Pseudomonas aeruginosa PAO1 assessed as potentiation of fosfomycin-induced antibacterial effect incubated for 18 hrs by checkerboard assay. Format: functional, organism-based.
The test system of data set [19] is Pseudomonas aeruginosa. Briefly: Synergistic antibacterial activity against wild type Pseudomonas aeruginosa PAO1 assessed as potentiation of aztreonam-induced antibacterial effect incubated for 18 hrs by checkerboard assay. Format: functional, organism-based.
For data set [20], the system named is Pseudomonas aeruginosa. In words: Synergistic antibacterial activity against wild type Pseudomonas aeruginosa PAO1 assessed as potentiation of chloramphenicol-induced antibacterial effect incubated for 18 hrs by checkerboard assay relative to chloramphenicol alone. Format: functional.
Data set [21] deals with Pseudomonas aeruginosa. In words: Synergistic antibacterial activity against wild type Pseudomonas aeruginosa PAO1 assessed as potentiation of minocycline-induced antibacterial effect incubated for 18 hrs by checkerboard assay relative to minocycline alone. Format: functional.
For data set [22], the system named is Pseudomonas aeruginosa. Briefly: Synergistic antibacterial activity against wild type Pseudomonas aeruginosa PAO1 assessed as potentiation of levofloxacin-induced antibacterial effect incubated for 18 hrs by checkerboard assay. Format: functional, organism-based.
For data set [23], the system named is Pseudomonas aeruginosa. Briefly: Synergistic antibacterial activity against wild type Pseudomonas aeruginosa PAO1 assessed as potentiation of levofloxacin-induced antibacterial effect incubated for 18 hrs by checkerboard assay relative to levofloxacin alone. Format: functional.
For data set [24], the system named is Pseudomonas aeruginosa. Briefly: Synergistic antibacterial activity against wild type Pseudomonas aeruginosa PAO1 assessed as potentiation of linezolid-induced antibacterial effect incubated for 18 hrs by checkerboard assay relative to linezolid alone. Format: functional.
In data set [25] the test system is Pseudomonas aeruginosa. Briefly: Synergistic antibacterial activity against wild type Pseudomonas aeruginosa PAO1 assessed as potentiation of colistin-induced antibacterial effect at <=7.1 uM incubated for 18 hrs by checkerboard assay. Format: functional, organism-based.
For data set [26], the system named is Pseudomonas aeruginosa. Briefly: Synergistic antibacterial activity against wild type Pseudomonas aeruginosa PAO1 assessed as potentiation of meropenem-induced antibacterial effect incubated for 18 hrs by checkerboard assay. Format: functional, organism-based.
Data set [27] has as its system Pseudomonas aeruginosa. In words: Synergistic antibacterial activity against wild type Pseudomonas aeruginosa PAO1 assessed as potentiation of cefotaxime-induced antibacterial effect incubated for 18 hrs by checkerboard assay. Format: functional, organism-based.
Data set [28] relates to Pseudomonas aeruginosa. Briefly: Synergistic antibacterial activity against wild type Pseudomonas aeruginosa PAO1 assessed as potentiation of fosfomycin-induced antibacterial effect incubated for 18 hrs by checkerboard assay relative to fosfomycin alone. Format: functional.
Data set [29] relates to Pseudomonas aeruginosa. In words: Synergistic antibacterial activity against wild type Pseudomonas aeruginosa PAO1 assessed as potentiation of ceftazidime-induced antibacterial effect incubated for 18 hrs by checkerboard assay relative to ceftazidime alone. Format: functional.
In data set [30] the test system is Pseudomonas aeruginosa. In words: Synergistic antibacterial activity against wild type Pseudomonas aeruginosa PAO1 assessed as potentiation of ciprofloxacin-induced antibacterial effect incubated for 18 hrs by checkerboard assay. Format: functional, organism-based.
Data set [31] deals with Pseudomonas aeruginosa. In words: Synergistic antibacterial activity against wild type Pseudomonas aeruginosa PAO1 assessed as potentiation of tobramycin-induced antibacterial effect at <= 7.1 uM incubated for 18 hrs by checkerboard assay. Format: functional, organism-based.
For data set [32], the system named is Pseudomonas aeruginosa. Briefly: Synergistic antibacterial activity against wild type Pseudomonas aeruginosa PAO1 assessed as potentiation of clindamycin-induced antibacterial effect incubated for 18 hrs by checkerboard assay. Format: functional, organism-based.
The test system of another data set is HepG2. In words: Cytotoxicity against human HepG2 cells at 50 uM incubated for 48 hrs by PrestoBlue dye based fluorescence assay. The conditions noted are these: hepg2, 48 h. Format: cell-based.
The test system of data set [33] is Pseudomonas aeruginosa. Briefly: Synergistic antibacterial activity against wild type Pseudomonas aeruginosa PAO1 assessed as potentiation of meropenem-induced antibacterial effect incubated for 18 hrs by checkerboard assay relative to meropenem alone. Format: functional.
Data set [34] deals with Pseudomonas aeruginosa. Briefly: Synergistic antibacterial activity against wild type Pseudomonas aeruginosa PAO1 assessed as potentiation of ciprofloxacin-induced antibacterial effect incubated for 18 hrs by checkerboard assay relative to ciprofloxacin alone. Format: functional.
For data set [35], the system named is Pseudomonas aeruginosa. In words: Synergistic antibacterial activity against wild type Pseudomonas aeruginosa PAO1 assessed as potentiation of piperacillin-induced antibacterial effect incubated for 18 hrs by checkerboard assay. Format: functional, organism-based.
Data set [36] relates to Pseudomonas aeruginosa. Briefly: Synergistic antibacterial activity against wild type Pseudomonas aeruginosa PAO1 assessed as potentiation of doxycycline-induced antibacterial effect incubated for 18 hrs by checkerboard assay relative to doxycycline alone. Format: functional.
Data set [37] concerns Pseudomonas aeruginosa. Briefly: Synergistic antibacterial activity against wild type Pseudomonas aeruginosa PAO1 assessed as potentiation of novobiocin-induced antibacterial effect incubated for 18 hrs by checkerboard assay. Format: functional, organism-based.
The test system of data set [38] is Pseudomonas aeruginosa. Briefly: Antibacterial activity against wild type Pseudomonas aeruginosa PAO1 assessed as fractional inhibitory concentration index incubated for 18 hrs in presence of colistin by checkerboard assay. Format: functional.
Another data set relates to HEK293. In words: Cytotoxicity against human HEK293 cells at 50 uM incubated for 48 hrs by PrestoBlue dye based fluorescence assay. Format: cell-based. As to conditions: hek293, 48 h.
In data set [39] the test system is Pseudomonas aeruginosa. In words: Synergistic antibacterial activity against wild type Pseudomonas aeruginosa PAO1 assessed as potentiation of rifampicin-induced antibacterial effect incubated for 18 hrs by checkerboard assay relative to rifampicin alone. Format: functional.
For data set [40], the system named is Pseudomonas aeruginosa. In words: Synergistic antibacterial activity against wild type Pseudomonas aeruginosa PAO1 assessed as potentiation of linezolid-induced antibacterial effect incubated for 18 hrs by checkerboard assay. Format: functional, organism-based.
For data set [41], the system named is Pseudomonas aeruginosa. Briefly: Synergistic antibacterial activity against wild type Pseudomonas aeruginosa PAO1 assessed as potentiation of moxifloxacin-induced antibacterial effect incubated for 18 hrs by checkerboard assay. Format: functional, organism-based.
Data set [42] can be described thus: Toxicity in Galleria mellonella larvae assessed as survivability at 200 mg/kg measured every 6 hrs for 72 hrs. The conditions noted are these: in vivo. Format: organism-based.
In data set [43] the test system is Pseudomonas aeruginosa. In words: Synergistic antibacterial activity against wild type Pseudomonas aeruginosa PAO1 assessed as potentiation of doxycycline-induced antibacterial effect incubated for 18 hrs by checkerboard assay. Format: functional, organism-based.
For data set [44], the system named is Pseudomonas aeruginosa. In words: Synergistic antibacterial activity against wild type Pseudomonas aeruginosa PAO1 assessed as potentiation of aztreonam-induced antibacterial effect incubated for 18 hrs by checkerboard assay relative to aztreonam alone. Format: functional.
A further data set relates to Erythrocyte. In words: Hemolytic activity against porcine erythrocytes assessed as hemoglobin release at 1024 ug/ml incubated for 1 hr by microplate reader analysis. Format: ADME, cell-based, Sus scrofa. The conditions noted are these: pig.

The source made the active and inactive calls. The rule behind the calls is not given here.

The MIC is the lowest concentration that inhibits growth of the organism. For the molecule `NC[C@H]1O[C@H](O[C@H]2[C@H](O)[C@@H](O[C@H]3O[C@H](CO)[C@@H](O)[C@H](N)[C@H]3O)[C@H](N)C[C@@H]2N)[C@H](N)C[C@@H]1O` [TOBRAMYCIN], the MIC with Acinetobacter baumannii [1] is 1 µg/mL; in the data set on Acinetobacter baumannii [3], 1 µg/mL; with Acinetobacter baumannii [4], 0.25 µg/mL; with Acinetobacter baumannii [6] it was 1 µg/mL. Moreover, the “fold change (FC)” value in the data set on Acinetobacter baumannii [2] came out at 512. Further, the outcome with Pseudomonas aeruginosa [5] was inactive.

As for `NC[C@H]1O[C@H](O[C@H]2[C@H](OCCCCCCCCn3cc(CCCCO[C@@H]4[C@@H](O[C@H]5O[C@H](CO)[C@@H](O)[C@H](N)[C@H]5O)[C@H](N)C[C@H](N)[C@H]4O[C@H]4O[C@H](CN)[C@@H](O)C[C@H]4N)nn3)[C@@H](O[C@H]3O[C@H](CO)[C@@H](O)[C@H](N)[C@H]3O)[C@H](N)C[C@@H]2N)[C@H](N)C[C@@H]1O.O=C(O)C(F)(F)F.O=C(O)C(F)(F)F.O=C(O)C(F)(F)F.O=C(O)C(F)(F)F.O=C(O)C(F)(F)F.O=C(O)C(F)(F)F.O=C(O)C(F)(F)F.O=C(O)C(F)(F)F.O=C(O)C(F)(F)F.O=C(O)C(F)(F)F`, the “fold change (FC)” value in the data set with Pseudomonas aeruginosa [7], in the data set on Pseudomonas aeruginosa [10], in the data set with Pseudomonas aeruginosa [11], in the data set with Pseudomonas aeruginosa [14], in the data set with Pseudomonas aeruginosa [15] and with Pseudomonas aeruginosa [20] was 4 - 128 in each case. Moreover, the “fold change (FC)” value in the data set on Pseudomonas aeruginosa [21], in the data set with Pseudomonas aeruginosa [23], in the data set on Pseudomonas aeruginosa [24], in the data set on Pseudomonas aeruginosa [28], in the data set on Pseudomonas aeruginosa [29] and with Pseudomonas aeruginosa [33] was 4 - 128 throughout. For the same molecule, the “fold change (FC)” value in the data set on Pseudomonas aeruginosa [34], in the data set with Pseudomonas aeruginosa [36], in the data set on Pseudomonas aeruginosa [39] and in the data set on Pseudomonas aeruginosa [44] was 4 - 128 each time. For the same molecule, the Activity result with Pseudomonas aeruginosa [8], in the data set with Pseudomonas aeruginosa [9], with Pseudomonas aeruginosa [12], in the data set with Pseudomonas aeruginosa [13], with Pseudomonas aeruginosa [18] and in the data set with Pseudomonas aeruginosa [19] was “Dose-dependent effect” each time. Moreover, the Activity entry in the data set on Pseudomonas aeruginosa [22] is “Dose-dependent effect”; with Pseudomonas aeruginosa [26], “Dose-dependent effect”; with Pseudomonas aeruginosa [27], “Dose-dependent effect”; with Pseudomonas aeruginosa [30], “Dose-dependent effect”; in the data set with Pseudomonas aeruginosa [32], “Dose-dependent effect”; in the data set on HepG2, “Non-Toxic”. Besides, the Activity entry is “Dose-dependent effect” with Pseudomonas aeruginosa [35]; “Dose-dependent effect” in the data set on Pseudomonas aeruginosa [37]; “Non-Toxic” with HEK293; “Dose-dependent effect” in the data set on Pseudomonas aeruginosa [40]; “Dose-dependent effect” with Pseudomonas aeruginosa [41]; “Non-Toxic” in [42]. Besides, the Activity result with Pseudomonas aeruginosa [43] was “Dose-dependent effect”; in the data set with Erythrocyte, “Non-Toxic”. In addition, the “fractional inhibitory concentration index (FICI)” value in the data set with Pseudomonas aeruginosa [16] and with Pseudomonas aeruginosa [38] was more than 4 in each case. The outcome with Pseudomonas aeruginosa [17], in the data set on Pseudomonas aeruginosa [25] and with Pseudomonas aeruginosa [31] was inactive.
